The source of these data is patent US20140243332A1, “METHODS OF TREATING CANCERS CHARACTERIZED BY ABERRENT ROS1 ACTIVITY” (Oregon Health & Science University, priority 2013, published 2014).

SMILES strings stand for the structures.

One experiment deals with FIG-ROS (Homo sapiens, UniProt P08922). Description: Immunoblot of FIG-ROS murine cholangiocarcinoma cell lysates. Set-up: expressed in transfected cells; host or cells: murine cholangiocarcinoma tumour cell lines (lines 3 and 4) derived from transduced mouse hepatoblasts; the other entry of the earlier key: GOPC (Q9HD26, Golgi-associated PDZ and coiled-coil motif-containing protein). The note with it: 100 nM, FIG-ROS murine cholangiocarcinoma cells. The experiment is classed as cell-based. On the procedure:
[…]. Images shown are representative of three independent experiments.
(§1) Ba/F3 FIG-ROS, Ba/F3 SLC-ROS, HCC78 and mCC cell lines were treated with the indicated concentration of inhibitors for 1-2 hours. […] The protein content of the cell lysates was determined and lysates were either used for immunoprecipitation where indicated or extracted with SDS Sample buffer for 15 minutes at 80° C. Proteins were transferred to Immobilon-FL membranes and immunoblotted with antibodies specific for phospho-ROS1 (Cell Signaling Technology (CST) #3078), total ROS1 (CST #3266), phopsho-Shp2 (CST #3751), total Shpt (CST #3752), phospho-Stat3 (CST #9145), total Stat3 (CST #4904), phospho-Erk1/2 (CST #9101), total Erk2 (Santa Cruz #SC-1647), phospho-S6 (CST #4858), total S6 (CST #2216), phospho-Src (CST #2105), total Src (CST #2110), α-tubulin (Sigma T6199), or β-actin (Sigma A1978) as indicated. Images of the blots were generated by the LI-COR Odyssey® imaging system, following the manufacturer's protocol for immunoblot detection with use of IR-dye conjugated secondary antibodies.
. The inhibition was dose dependent (FIG. 2B). […].

The subject of experiment [1] is SLC-ROS and ERK1/2 phosphorylation. As to the kind of experiment: Immunoblot of HCC78 lysates. The following applies: HCC78 cells, immunoblot FIG. 1E. The experiment is classed as cell-based, human. On the procedure:
FIG. 1E is an image of an immunoblot of lysates of HCC78 cells probing for phosphorylated and total SLC-ROS1 and ERK1/2, and phosphorylated protein S6 after treatment with the indicated concentration of the indicated inhibitor. The images are representative of two independent experiments.
as §1
(In general: Immunoblotting shows a protein as a band on a membrane.)

Experiment [2] concerns shPten murine cholangiocarcinoma tumor cells. As to the kind of experiment: cells. The following applies: Mus musculus, read-out: IC50 cell growth. On the procedure: (§2) Hepatoblasts of the genotype AlbCre^+/−; Isl Kras^G12D+/−; p53^R172H/loxp were isolated from ED14.5 mouse embryos and retrovirally transduced with either the FIG-ROS fusion, turbo RFP or a short hairpin RNA against Pten (shPten.1522). At 48 hours following transduction, 1×10^6 cells were resuspended in 25 μl Matrigel and injected sub-capsular into the livers of immune-deficient mice. Upon tumor formation, tumors were explanted and subjected to collagenase digestion. Digests were plated onto gelatin-coated plates. Tumor cells were enriched by either differential trypsinization or cell sorting. […] These four cell lines were further cultured and maintained in DMEM-High glucose medium supplemented with 10% FCS, L-glutamine and penicillin/streptomycin.
(§3) Cell lines were distributed in 96-well plates and incubated with the indicated concentrations of inhibitor for 72 hours. […] Ba/F3 cell lines were plated at 4×10^3 cells/well. HCC78 and mCC cell lines were plated at 1.5×10^3 cells/well. All cell types were seeded in a final volume of 80 microliters. A 20 microliter volume of five-fold concentrated inhibitor media was added. Cell proliferation was measured using a […] viability assay (CellTiter96 Aqueous One® Solution; Promega). A BioTek Synergy 2® plate reader was used to read the absorbance at 490 nm at 30 minutes and 1 hour after addition of MTS. To facilitate comparison between experiments, the raw MTS absorbance of vehicle (0.1% DMSO) treated cells was set to 1 and absorbance from inhibitor treated wells was normalized to the vehicle treated value. […] Data were normalized using Microsoft Excel® and further non-linear regression curve fit analysis of the normalized data for determination of IC50 was performed using Graphpad Prism® software.
(§4) To directly assess inhibition of FIG-ROS phosphorylation, immunoblot analyses of lysates from vehicle or inhibitor-treated cells were performed.

Experiment [3] has as its system FIG-ROS murine cholangiocarcinoma tumor cells. As to the kind of experiment: cells. The following applies: Mus musculus, read-out: IC50 cell growth. On the procedure: as §2, §3, §4
The next experiment concerns HCC78 cells. As to the kind of experiment: HCC78 colony formation. The experiment is classed as cell-based, human. The following applies: 10 days, FIG. 1F. The text has this: FIG. 1F bottom panel is a bar graph depicting the number of colonies observed on the plates from FIG. 1F top panel. Where indicated, **=p<0.01 and ***=p<0.001 by Student's t-test.
Experiment [4] concerns the target Ba/F3 FIG-ROS L1947R cells (Homo sapiens, UniProt P08922, L1947R, cells depend on it). As to the kind of experiment: Cell viability assay, Ba/F3 FIG-ROS L1947R. Format: cell-based. The following applies: Table 3, Ba/F3 FIG-ROS L1947R; nM; read-out: IC50 (the source's name). The protocol: as §3
(§5) The FIG-ROS-S fusion gene was synthesized using the GeneArt® service. FIG-ROS-S is denoted as FIG-ROS herein.

Experiment [5] has as its target Ba/F3 FIG-ROS C2060G cells (Homo sapiens, UniProt P08922, C2060G, cells depend on it). As to the kind of experiment: Cell viability assay, Ba/F3 FIG-ROS C2060G. The experiment is classed as cell-based. The following applies: Table 3, Ba/F3 FIG-ROS C2060G; nM; read-out: IC50 (the source's name). The protocol:
as §3, §5

The target in experiment [6] is Ba/F3 CD74-ROS G2032R mutant cells (Homo sapiens, UniProt P08922, G2032R, cells depend on it). As to the kind of experiment: Cell growth assay, Ba/F3 CD74-ROS G2032R. The experiment is classed as cell-based. The following applies: 72 hour exposure, read-out: IC50 (the source's name).
Description: Data are shown as normalized to vehicle-treated cells. The values are means±SEM from three independent experiments performed in triplicate.
A further experiment deals with SLC-ROS (Homo sapiens, UniProt P08922). Description: Immunoblot of Ba/F3 SLC-ROS lysates. Format: cell-based. Further details: SLC34A2 N-terminal portion, fusion partner; expressed in transfected cells; host or cells: Ba/F3 (A15), retroviral pMIG; the other entry of the earlier key: SLC34A2 (O95436, Sodium-dependent phosphate transport protein 2B). The note with it: Ba/F3 SLC-ROS cells, increasing amounts, immunoblot FIG. 1C. On the procedure:
FIG. 1C is an image of an immunoblot of lysates of Ba/F3 FIG-ROS and Ba/F3 SLC-ROS and the indicated downstream effectors after treatment with the indicated compounds. Images shown are representative of three independent experiments.
as §1

The subject of a further experiment is PC9 cells. Description: Cell viability assay, PC9. Format: cell-based, human. The note with it: PC9 cells (activated EGFR), FIG. 6B. On the procedure: IC50 was determined from non-linear regression curve fit analysis of the dose response curves.

For `COc1cc2c(Oc3ccc(NC(=O)C4(C(=O)Nc5ccc(F)cc5)CC4)cc3F)ccnc2cc1OCCCN1CCOCC1` [foretinib, N1′-[3-fluoro-4-[[6-methoxy-7-(3-morpholinopropoxy)-4-quinolyl]oxy]phenyl]-N1-(4-fluorophenyl)cyclopropane-1,1-dicarboxamide], the “auto-phosphorylation of FIG-ROS and phosphorylation of Shpt and ERK1/2” value on FIG-ROS is on record as “almost completely inhibited”. In experiment [1], the “inhibition of SLC-ROS and ERK1/2 phosphorylation” value was “at a lower concentration than did crizotinib”. For the same molecule, the IC50 in experiment [2] is more than 2 µM; in [3] it was 0.3 µM. In addition, in the experiment with HCC78 cells, the HCC78 colony formation entry is on record as “more potently inhibited by foretinib than crizotinib”. Besides, the GI50 stood at 17.9 nM in [4], 13.6 nM in [5] and 0.05 µM in experiment [6]. The “autophosphorylation of SLC-ROS and ROS1-driven signaling (phospho-Shp2, phospho-ERK1/2)” value on SLC-ROS is listed as “dose dependent decrease”. The “sensitivity of cell growth” value with PC9 cells was “relatively insensitive”.

In general, IC50 refers to the concentration that inhibits the measured activity by half.
